# How the values were obtained:
# [1] = system: CNS of 14-day-old double transgenic mice; test: Ectopic expression of IFN-γ in the CNS during development (released from doxycycline at E14), PERK+/+ or PERK+/− background; type: in vivo
# Description: To study the effect of INF-γ on the myelination of oligodendrocytes during mouse development, transgenic mice that allow for temporally regulated delivery of IFN-γ to the CNS using the tetracycline (tet) controllable system (Lin, et al. (2004) J. Neurosci. 24: 10074-10083) were generated. To drive tTA expression in astrocytes, the transcriptional regulatory region of the glial fibrillary acidic protein (GFAP) gene was chosen (Brenner, et al. (1994) J. Neurosci. 14: 1030-1037). GFAP/tTA mice were mated with TRE/IFN-γ mice to produce animals hemizygous for both transgenes. When these mice are maintained on doxycycline (DOX+), expression of the IFN-γ transgene is repressed (FIG. 10A); when the double transgenic mice are released from doxycycline (DOX−) INF-γ is expressed. For the purpose of these experiments, mice received doxycycline up to day 14 of development (E14), at which time the experimental animals (DOX−) stopped receiving doxycycline, while the control animals (DOX+) were continuosly fed the dug. The mRNA for IFN-γ could be detected in the DOX− mice as early as 10 days after birth (data not shown).
# Real time PCR analysis was performed to determine the levels of expression of INF-γ, MHC-1, BIP, CHOP, and caspase 12. The primers for the PCR reactions for BIP, CHP and caspase 12 are given in example 1. The sense and antisense primers for INF-γ were […] (SEQ ID NO: 39) and […] (SEQ ID NO: 40), respectively; and the sense and antisense primers for MHC-1 were MHC-I sense primer: ATTCCCCAAAGGCCCATGT (SEQ ID NO: 1); and MHC-I antisense primer: […] (SEQ ID NO: 2).
# Western blot analysis was performed on the CNS of 14 day old mice to determine the expression of caspase-12 as described in Example 6.
# Brain and spinal cord tissue were analyzed using immunohistochemical methods as follows. Anesthetized mice were perfused through the left cardiac ventricle with 4% paraformaldehyde in 0.1M PBS. The half-saggital brains and transcervical spinal cord were removed, postfixed with paraformaldehyde, cryopreserved in 30% sucrose, embedded in OCT and frozen on dry ice. Frozen sections were cut in a cryostat at a thickness of 10 μm. Coronal sections at the fornix region of the corpus callosum corresponding to Sidman sections 241-251 were selected for use, and all comparative analyses were restricted to midline corpus callosum (Sidman, et al. (1971) Atlas of the Mouse Brain and Spinal Cord (Harvard Univ. Press, Cambridge, Mass.). For immunohistochemistry, frozen sections were treated with −20° C. acetone, blocked with PBS containing 10% NGS and 0.1% Triton X-100 and incubated overnight with the primary antibody diluted in blocking solution. Appropriate fluorochrome- or enzyme-labeled secondary antibodies (Vector Laboratories, Burlingame, Calif.) were used for detection. An antibody against CC1 (APC7, 1:50; EMD Biosciences, Inc., La Jolla, Calif.) was used as a marker for mature oligodendrocytes. Antibody against MBP (1:1000; Stemberger Monoclonals, Lutherville, […].) was used to verify the degree of myelination. Antibody against active-caspase-3 (1:50, Cell signaling Technology, Beverly, Mass.) was used as a marker for apoptotic cells. Fluorescent stained sections were mounted with Vectashield mounting medium with DAPI (Vector Laboratories) and visualized with a Zeiss Axioplan fluorescence microscope. Images were captured using a Photometrics PXL CCD camera connected to an Apple Macintosh computer using the Open Lab software suite. Immunopositive cells were quantified by counting positive cells within the median of the corpus callosum, confined to an area of 0.04 mm^2. Only those cells with nuclei observable by DAPI staining were counted. Each MBP immunostaining slide was scored on a scale of zero to four. A score of zero indicates complete demyelination, and a score of four indicates normal myelination in the corpus callosum of adult mice. […]
# [2] = system: ER stress markers BIP, CHOP, p-eIF-2α; test: ER stress markers in the corpus callosum of cuprizone treated mice expressing IFN-γ; type: in vivo
# Protocol: Repression of remyelination by IFN-γ is associated with ER stress. […] To determine whether IFN-γ interferes with endoplasmic reticulum (ER) function in remyelinating oligodendrocytes, the expression of ER stress markers was monitored in the corpus callosum of mice expressing IFN-γ. The study was performed using the transgenic mice described in Example 1.
# The level of mRNA encoding ER stress associated genes binding immunoglobulin protein/78 KDa glucose regulated protein (BIP/GRP78) and the CAATT enhancer-binding protein homologous protein/growth and DNA damage protein 153 (CHOP/GADD153), was determined using real time PCR, as described in Example 1 in the corpus callosum of the cuprizone treated mice of Example 1. The probes, sense and antisense primers that were used were: […]
# The level of phosphorylated eIF-2α, which inhibits nucleotide exchange on the eIF-2 complex and attenuates most protein synthesis, was analyzed by Western blot, and the expression was colocalized by immunostaining CC1 antibodies as described above. Western blot analysis was performed as follows. The corpus callosum from 3 mice was rinsed in ice cold phosphate-buffered saline (PBS) and pooled, and immediately homogenized in 5 volumes of Triton X-100 buffer (20 mM HEPES pH 7.5, 150 mM NaCl, 1% Triton X-100, 10% glycerol, 1 mM EDTA, 10 mM tetrasodium pyrophosphate, 100 mM NaF, 17.5 mM β-glycerophosphate, 10 mM phenylmethylsulfonyl fluoride, 15 μg/ml aprotonin, and 6 μg/ml pepstatin A) using a motorized homogenizer. After incubation on ice for 15 min, the extracts were cleared by centrifugation at 14,000 rpm twice for 30 min each. The protein content of each extract was determined by protein assay (Bio-Rad). The extracts (40 μg) were separated by sodium dodecyl sulfate-polyacrylamide gel electrophoresis and transferred to nitrocellulose. […] The following primary antibodies were used: anti-eIF-2α (1:500; Santa Cruz, Santa Cruz, Calif.), anti-p-eIF-2α (1:1000, Cell signaling Technology), anti-CHOP (1:500; Santa Cruz) and anti-actin (1:1000; Sigma, St Louis, Mo.).
# [3] = CNS, PND 14, DOX− released at E14, real-time PCR
# [4] = corpus callosum of DOX− mice, Western blot
substance,measurement,setting,value
interferon-γ [IFN-γ],caspase-12 expression,"[1]; CNS, PND 14, DOX− released at E14",strongly enhanced
same,BIP expression,[1]; [3],approximately 1.6 times the control levels
same,CHOP expression,[1]; [3],~2 times the control levels
same,mice that experienced tonic seizures,[1]; E14 DOX− PERK+/−,approximately two-thirds
same,decrease of oligodendrocyte numbers in the spinal cord,"[1]; IFN-γ expressing mice on a PERK+/− background, 14-day-old, CC1",more than 50%
same,unmyelinated axons in the spinal cord,"[1]; PERK+/− mice that express IFN-γ in the CNS, 14-day-old",81%±14.9%
same,"number of TUNEL positive oligodendrocytes in the cervical spinal cord, PERK+/− relative to wild-type background",[1]; released from doxycycline at E14,2.5 times
same,mice that died by post natal day (PND) 27,"[1]; released from doxycycline at E14, PERK+/− background",more than 90%
same,survival,"[1]; released from doxycycline at E14, wild-type background",normal survival
same,unmyelinated axons in the spinal cord,"[1]; wild-type background, released from doxycycline at E14",30%±12.9%
same,level of CHOP protein,[2]; [4],approximately 1.7 fold
same,level of phosphorylated eIF-2α (p-eIF-2α),[2]; [4],approximately 1.8 fold
same,level of mRNA for BIP and CHOP,"[2]; corpus callosum, DOX− compared to control DOX+, real time PCR",approximately 2 fold
